#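 Dose response: 5 concentrations. Exposure: 48 h. Format: 96-well plates. Endpoint: linear interpolation; highest concentration if not reached. The concentration for 50% growth inhibition is given as GI50. TGI denotes the concentration required for complete inhibition of growth.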
# What was measured:
# Test in all cases: growth of human tumour cells (NCI), 48 h
# [1] = tested on: NCI-H226 lung
# [2] = tested on: A549 NSCLC
# [3] = tested on: HOP-62 NSCLC
# [4] = tested on: T-47D breast
# [5] = tested on: TK-10 renal
# [6] = tested on: SR leukemia
# [7] = tested on: SK-MEL-28 melanoma
# [8] = tested on: IGROV1 ovarian
# [9] = tested on: OVCAR-5 ovarian
# [10] = tested on: MDA-MB-231 breast
# [11] = tested on: MCF7 breast
# [12] = tested on: MDA-MB-435
# [13] = tested on: HOP-92 NSCLC
# [14] = tested on: 786-0 renal
# [15] = tested on: LOX IMVI melanoma
# [16] = tested on: CCRF-CEM leukemia
# [17] = tested on: HS 578T breast
# [18] = tested on: SN12C renal
# [19] = tested on: COLO 205 colon
# [20] = tested on: HT29 colon
# [21] = tested on: SK-OV-3 ovarian
# [22] = tested on: HCT-15 colon
# [23] = tested on: ACHN renal
# [24] = tested on: A498 renal
# [25] = tested on: SK-MEL-2 melanoma
# [26] = tested on: OVCAR-3 ovarian
# [27] = tested on: DU-145 prostate
# [28] = tested on: NCI/ADR-RES ovarian
# [29] = tested on: UO-31 renal
# [30] = tested on: HCC-2998 colon
# [31] = tested on: MALME-3M melanoma
# [32] = tested on: BT-549 breast
# [33] = tested on: RPMI-8226 leukemia
# [34] = tested on: UACC-257 melanoma
# [35] = tested on: HL-60(TB) leukemia
# [36] = tested on: K-562 leukemia
# [37] = tested on: OVCAR-8 ovarian
# [38] = tested on: PC-3 prostate
# [39] = tested on: SW-620 colon
# [40] = tested on: EKVX NSCLC
# [41] = tested on: M14 melanoma
# [42] = tested on: KM12 colon
# [43] = tested on: NCI-H23 lung
# [44] = tested on: NCI-H460 lung
# [45] = tested on: RXF 393 renal
# [46] = tested on: CAKI-1 renal
# [47] = tested on: NCI-H522 lung
# [48] = tested on: MOLT-4 leukemia
# [49] = tested on: UACC-62 melanoma
# [50] = tested on: SK-MEL-5 melanoma
# [51] = tested on: OVCAR-4 ovarian
# [52] = tested on: HCT-116 colon
# [53] = tested on: SF-539 CNS
# [54] = tested on: SF-295 CNS
# [55] = tested on: U251 CNS
# [56] = tested on: SF-268 CNS
# [57] = tested on: SNB-19 CNS
structure (smiles),measurement,setting,value
NC(=O)c1ncn(C2OC(CO)C(O)C2O)n1 (stereo unspecified),GI50,[1],> 100 µM
same,TGI,[1],> 100 µM
same,GI50,[2],62 µM
same,TGI,[2],> 100 µM
same,GI50,[3],> 100 µM
same,TGI,[3],> 100 µM
same,GI50,[4],49.2 µM
same,TGI,[4],> 100 µM
same,GI50,[5],> 100 µM
same,TGI,[5],> 100 µM
same,GI50,[6],> 100 µM
same,TGI,[6],> 100 µM
same,GI50,[7],> 100 µM
same,TGI,[7],> 100 µM
same,GI50,[8],> 100 µM
same,TGI,[8],> 100 µM
same,GI50,[9],> 100 µM
same,TGI,[9],> 100 µM
same,GI50,[10],> 100 µM
same,TGI,[10],> 100 µM
same,GI50,[11],36.4 µM
same,TGI,[11],> 100 µM
same,GI50,[12],> 100 µM
same,TGI,[12],> 100 µM
same,GI50,[13],> 100 µM
same,TGI,[13],> 100 µM
same,GI50,[14],> 100 µM
same,TGI,[14],> 100 µM
same,GI50,[15],53.6 µM
same,TGI,[15],> 100 µM
same,GI50,[16],4.73 µM
same,TGI,[16],49.6 µM
same,GI50,[17],> 100 µM
same,TGI,[17],> 100 µM
same,GI50,[18],85 µM
same,TGI,[18],> 100 µM
same,GI50,[19],55.2 µM
same,TGI,[19],> 100 µM
same,GI50,[20],14.2 µM
same,TGI,[20],> 100 µM
same,GI50,[21],> 100 µM
same,TGI,[21],> 100 µM
same,GI50,[22],38.4 µM
same,TGI,[22],> 100 µM
same,GI50,[23],59.8 µM
same,TGI,[23],> 100 µM
same,GI50,[24],> 100 µM
same,TGI,[24],> 100 µM
same,GI50,[25],> 100 µM
same,TGI,[25],> 100 µM
same,GI50,[26],74.9 µM
same,TGI,[26],> 100 µM
same,GI50,[27],39.6 µM
same,TGI,[27],> 100 µM
same,GI50,[28],54.6 µM
same,TGI,[28],> 100 µM
same,GI50,[29],> 100 µM
same,TGI,[29],> 100 µM
same,GI50,[30],> 100 µM
same,TGI,[30],> 100 µM
same,GI50,[31],> 100 µM
same,TGI,[31],> 100 µM
same,GI50,[32],> 100 µM
same,TGI,[32],> 100 µM
same,GI50,[33],80.5 µM
same,TGI,[33],> 100 µM
same,GI50,[34],> 100 µM
same,TGI,[34],> 100 µM
same,GI50,[35],> 100 µM
same,TGI,[35],> 100 µM
same,GI50,[36],51.9 µM
same,TGI,[36],> 100 µM
same,GI50,[37],45.4 µM
same,TGI,[37],> 100 µM
same,GI50,[38],59.6 µM
same,TGI,[38],> 100 µM
same,GI50,[39],22.8 µM
same,TGI,[39],> 100 µM
same,GI50,[40],70.2 µM
same,TGI,[40],> 100 µM
same,GI50,[41],> 100 µM
same,TGI,[41],> 100 µM
same,GI50,[42],> 100 µM
same,TGI,[42],> 100 µM
same,GI50,[43],> 100 µM
same,TGI,[43],> 100 µM
same,GI50,[44],64.2 µM
same,TGI,[44],> 100 µM
same,GI50,[45],> 100 µM
same,TGI,[45],> 100 µM
same,GI50,[46],57.2 µM
same,TGI,[46],> 100 µM
same,GI50,[47],> 100 µM
same,TGI,[47],> 100 µM
same,GI50,[48],52.9 µM
same,TGI,[48],> 100 µM
same,GI50,[49],> 100 µM
same,TGI,[49],> 100 µM
same,GI50,[50],> 100 µM
same,TGI,[50],> 100 µM
same,GI50,[51],> 100 µM
same,TGI,[51],> 100 µM
same,GI50,[52],45.1 µM
same,TGI,[52],> 100 µM
CCc1ccc(/C(C#N)=C/C=C/c2ccccc2)cc1,GI50,[1],17.2 µM
same,TGI,[1],> 100 µM
same,GI50,[2],2.62 µM
same,TGI,[2],> 100 µM
same,GI50,[3],2.83 µM
same,TGI,[3],> 100 µM
same,GI50,[4],2.4 µM
same,TGI,[4],> 100 µM
same,GI50,[5],5.79 µM
same,TGI,[5],> 100 µM
same,GI50,[6],0.644 µM
same,TGI,[6],> 61.4 µM
same,GI50,[7],7.12 µM
same,TGI,[7],> 100 µM
same,GI50,[8],7.55 µM
same,TGI,[8],> 100 µM
same,GI50,[9],7.06 µM
same,TGI,[9],> 100 µM
same,GI50,[10],5.84 µM
same,TGI,[10],> 76.7 µM
same,GI50,[11],1.14 µM
same,TGI,[11],> 100 µM
same,GI50,[12],0.299 µM
same,TGI,[12],1.16 µM
same,GI50,[13],2.28 µM
same,TGI,[13],78.8 µM
same,GI50,[14],11.1 µM
same,TGI,[14],> 100 µM
same,GI50,[15],10.5 µM
same,TGI,[15],> 100 µM
same,GI50,[16],3.11 µM
same,TGI,[16],> 100 µM
same,GI50,[17],5.25 µM
same,TGI,[17],> 100 µM
same,GI50,[18],10.6 µM
same,TGI,[18],> 100 µM
same,GI50,[53],1.52 µM
same,TGI,[53],4.69 µM
same,GI50,[19],1.83 µM
same,TGI,[19],5.91 µM
same,GI50,[20],1.38 µM
same,TGI,[20],9.41 µM
same,GI50,[21],3.08 µM
same,TGI,[21],> 29.3 µM
same,GI50,[22],0.897 µM
same,TGI,[22],> 83.9 µM
same,GI50,[23],8.41 µM
same,TGI,[23],> 100 µM
same,GI50,[24],2.19 µM
same,TGI,[24],39.3 µM
same,GI50,[25],4.92 µM
same,TGI,[25],> 100 µM
same,GI50,[26],2.46 µM
same,TGI,[26],13.6 µM
same,GI50,[27],4.22 µM
same,TGI,[27],> 48.4 µM
same,GI50,[28],2.21 µM
same,TGI,[28],> 100 µM
same,GI50,[29],19.2 µM
same,TGI,[29],> 100 µM
same,GI50,[30],6.65 µM
same,TGI,[30],68.3 µM
same,GI50,[31],6.05 µM
same,TGI,[31],> 100 µM
same,GI50,[32],7.86 µM
same,TGI,[32],> 59.8 µM
same,GI50,[33],3.41 µM
same,TGI,[33],> 69 µM
same,GI50,[34],> 83.5 µM
same,TGI,[34],> 100 µM
same,GI50,[35],2.54 µM
same,TGI,[35],> 62.9 µM
same,GI50,[54],2.51 µM
same,TGI,[54],10.5 µM
same,GI50,[36],0.882 µM
same,TGI,[36],> 100 µM
same,GI50,[37],5 µM
same,TGI,[37],> 100 µM
same,GI50,[38],3.15 µM
same,TGI,[38],> 100 µM
same,GI50,[39],1.22 µM
same,TGI,[39],> 100 µM
same,GI50,[41],2.24 µM
same,TGI,[41],> 100 µM
same,GI50,[42],1.61 µM
same,TGI,[42],> 100 µM
same,GI50,[43],6.24 µM
same,TGI,[43],> 100 µM
same,GI50,[44],3.35 µM
same,TGI,[44],> 42.7 µM
same,GI50,[45],1.29 µM
same,TGI,[45],4.09 µM
same,GI50,[46],10.1 µM
same,TGI,[46],> 100 µM
same,GI50,[47],2.04 µM
same,TGI,[47],14.7 µM
same,GI50,[48],6.87 µM
same,TGI,[48],> 83.9 µM
same,GI50,[49],3.48 µM
same,TGI,[49],> 100 µM
same,GI50,[50],1.09 µM
same,TGI,[50],26.2 µM
same,GI50,[51],18.4 µM
same,TGI,[51],> 100 µM
same,GI50,[52],1.93 µM
same,TGI,[52],> 100 µM
same,GI50,[55],3.16 µM
same,TGI,[55],> 100 µM
same,GI50,[56],19.3 µM
same,TGI,[56],> 100 µM
same,GI50,[57],6.88 µM
same,TGI,[57],> 100 µM

# Source: PubChem BioAssay (NCI)
